In patent US9719981B2, “RAC1 inhibitors for the treatment of alport glomerular disease” (Father Flanagan's Boys' Home, priority 2012, dated 2017):

Tests used:
[1] = test system: primary cultured mesangial cells; assay: Boyden chamber (Transwell) cell migration assay, wild type mesangial cells; format: cell-based, mouse; settings: relative to 10% FCS, p<0.05
Protocol: MES Migration (insert). Transwell cell migration assays were performed as described by Daniel et al. (Daniel et al., 2012, Lab Invest; 92(6): 812-26) with some modifications. 8 micron, 24-well plate control inserts (BD Bioscience, Bedford, Mass.) were coated overnight at 4° C. with 100 μl of 0.1% gelatin/PBS then washed 1× with PBS. MES cultures were incubated in 1% FCS overnight, then 0.05% BSA-containing media for at least 8 hours, washed 1× with PBS and carefully tryspinized to ensure a single cell suspension and limited “clumping” of cells. After serum-neutralization and subsequent centrifugation, ˜100,000 cells were resuspended in 1.5 mls of 0.05% BSA media containing activators/inhibitors. The wells of a 24-well plate were filled with 0.75 mls of 10% FCS-containing media plus activators/inhibitors (excluding 0.05% BSA control well). 0.5 ml of cell-suspension was loaded into the gelatin-coated insert and the insert placed in a well. Wells were visually inspected for bubbles beneath insert and equal distribution of cell-suspension. Cells were allowed to migrate overnight (˜18 hrs). Using a moistened cotton swab, non-migrated cells were liberated from the apical-side of the insert by gentle but firm rubbing. A second swab repeated the removal and was followed by a single wash with PBS. Inserts were fixed, stained and washed (2×) in companion 24 well plate(s) containing 0.5 mls MEOH, 0.5 mls 1% Toluidine Blue in 1% Borax and 0.5 mls distilled H2O, respectively. Inserts were air dried and counted at 100× magnification. Five fields were counted on each insert including one center and four periphery areas. Data was expressed as relative to 10% FCS control well (set equal to one).

[2] = test system: Alport mice on the 129 Sv background; assay: Treatment of Alport mice with Rac1 inhibitor; format: in vivo, mouse; settings: injected once daily from 2 weeks to 6 weeks of age; relative to saline
Protocol: FIG. 9. Treatment of Alport mice with Rac1 inhibitors partially ameliorates mesangial cell process invasion of the glomerular capillary tufts. […] Kidney cryosections were analyzed by dual immunofluorescence immunostaining using antibodies against either laminin α2 (B and E) or integrin α8 (A and D). […] represent a merging of results from staining with laminin α2 and integrin α8. The degree of mesangial process invasion of the glomerular capillary tufts was ameliorated in the Rac1 inhibitor-treated mice relative to mice injected with saline.
To examine the effect of Rac1 inhibitors on Alport glomerular disease progression, either wild type or Alport mice were treated with inhibitors by IP injection from 2 weeks to 6 weeks of age. Glomeruli were examined for mesangial process invasion of the capillary tufts by dual immunofluorescence microscopy using antibodies specific for either integrin α8 or the GBM marker laminin α5. […] Combined, the data in FIG. 7, FIG. 8, and FIG. 9 confirm that mesangial process invasion of the glomerular capillaries is a Rac1-dependent process, and that Rac1 activation is attenuated by integrin α1 deletion both in vitro and in vivo.
Immunofluorescence microscopy. Fresh frozen kidneys were sectioned at 8 μm and acetone fixed. […]

[3] = test system: cultured wild type mesangial cells; assay: LPS-induced actin cytoskeletal rearrangement (phalloidin staining); format: cell-based, mouse; settings: 10 ng/ml LPS; 10 μM Rac-1 inhibitor or 1 μM CDC42 inhibitor; blinded
Protocol: Activation of mesangial cell cultures by treatment with LPS. Sub-confluent mesangial cells were tryspinized; plated at low density on Rat tail type 1 collagen (BD Biosciences) coated cytology slides (VWR) and incubated overnight in 1% FCS-containing media. One hour after the addition of serum-free media, 1 μM CDC42 Inhibitor (KSC-23-233) and 10 μM Rac-1 Inhibitor, NSC-23766 (Tocris) were added to individual slides and allowed to incubate for an additional hour. 10 ng/ml Lipopolysaccharides (Sigma-Aldrich) was added to cells, incubated 1 hour, fixed in ice cold acetone for 5 minutes and allowed to air dry ˜2 hours. Cells were stained with a 1:100 dilution of antibodies specific for CDC42 (10155-1-AP, PROTEINTECH™), and phalloidin (Molecular Probes) imaged. Untreated, LPS alone and LPS plus inhibitors treatments were repeated on two different derivations of primary mesangial cells with qualitatively consistent results.

[4] = test system: integrin α1-null mesangial cells; assay: Boyden chamber (Transwell) cell migration assay, integrin α1-null mesangial cells; format: cell-based, mouse; settings: relative to 10% FCS
Protocol: MES Migration (insert). Transwell cell migration assays were performed as described by Daniel et al. (Daniel et al., 2012, Lab Invest; 92(6): 812-26) with some modifications. 8 micron, 24-well plate control inserts (BD Bioscience, Bedford, Mass.) were coated overnight at 4° C. with 100 μl of 0.1% gelatin/PBS then washed 1× with PBS. MES cultures were incubated in 1% FCS overnight, then 0.05% BSA-containing media for at least 8 hours, washed 1× with PBS and carefully tryspinized to ensure a single cell suspension and limited “clumping” of cells. After serum-neutralization and subsequent centrifugation, ˜100,000 cells were resuspended in 1.5 mls of 0.05% BSA media containing activators/inhibitors. The wells of a 24-well plate were filled with 0.75 mls of 10% FCS-containing media plus activators/inhibitors (excluding 0.05% BSA control well). 0.5 ml of cell-suspension was loaded into the gelatin-coated insert and the insert placed in a well. Wells were visually inspected for bubbles beneath insert and equal distribution of cell-suspension. Cells were allowed to migrate overnight (˜18 hrs). […] Inserts were air dried and counted at 100× magnification. Five fields were counted on each insert including one center and four periphery areas. Data was expressed as relative to 10% FCS control well (set equal to one).

## CCN(CC)CCCC(C)Nc1nc(C)cc(Nc2ccc3nc(C)cc(N)c3c2)n1 (stereo not shown) [NSC 23766]
[1]
  Migration of wild type mesangial cells: significantly reduced
[2]
  Degree of mesangial process invasion of the glomerular capillary tufts: ameliorated
[3]
  LPS-induced morphological change (filopodia / actin spikes) in presence of inhibitor: could not be distinguished in blinded experiments form untreated wild type mesangial cells
[4]
  Integrin α1-null mesangial cell migration: unaffected
